# Measurements taken from publication PMC3003761 (ACS chemical biology, 2010).
# Like-named read-outs stand apart in the source and are kept apart here.
# Assays:
# [1] = biological target: Shaker-IR KV channel (Drosophila melanogaster, UniProt P08510, DEL6-46); assay: cell-based
# [2] = in vivo; settings: male, CD-1, mouse, ip, 3 mg/kg
# [3] = tested on: rat phrenic nerve-hemidiaphragm preparations; settings: cited from earlier work
# [4] = tested on: BoNT/A; assay type: in vivo, mouse; settings: n = 10
# [5] = mouse, in vivo, ip, 3 mg/kg
# [6] = mouse, in vivo
# [7] = tested on: serotype A botulinum neurotoxin-induced paralysis of mouse phrenic nerve-hemidiaphragm preparations
Compound,Hill coefficient [1],IC50 [1],Tmax [2],half-life [2],Rescue of BoNT/A intoxicated mice [4],toxicity (distress) after compound alone [6],Ability to reverse BoNT/A-induced muscle paralysis [7],other results
"Nc1ccncc1N [Compound 3, 3,4 diaminopyridine, reference compound]",1.04 ± 0.18,26.7 ± 4 µM,30 min,20.4 min,–,–,–,–
"C[n+]1ccc(N)c(N)c1 [Compound 4, 3,4-diamino-1-methylpyridinium]",–,–,–,–,–,–,–,activity in rat phrenic nerve-hemidiaphragm preparations [3]: inactive
"Nc1cncc(N)c1N [Compound 5, 3,4,5-Triaminopyridine]",1.09 ± 0.13,697 µM,30 min,18.6 min,"as effective as 3,4-DAP",no distress was observed,–,brain exposure [5]: no detectable brain exposure
"c1cc2nc[nH]c2cn1 [Compound 7, 5-azabenzimidazole]",–,–,–,–,–,–,unable to reverse BoNT/A-induced muscle paralysis,–
"C#CC[n+]1ccc(N)c(N)c1 [Compound 11, 3,4-diamino-1-(prop-2-ynyl)pyridinium]",1.28 ± 0.34,–,–,–,low efficacy,no distress was observed,–,IC50 ([1]; read-out: K0.5 (compound concentration required to achieve 50% inhibition)): 22.2 ± 4.3 µM; AUC(0-infinity) (plasma) [5]: 620 ng·h/mL; Cmax (plasma) [5]: 402 ng/mL; Tmax (plasma) [5]: 30 min; brain exposure as percentage of the plasma exposure [5]: 13%; plasma half-life [5]: 72 min
"CC[N+](CC)(CC)CCCc1ccccc1 [Compound 12, triethyl-3-phenylpropylammonium]",–,–,–,–,–,–,apparent neurotoxicity of the compound 12 prevented determination,–
